Laboratory results taken from patent US4002752A, “Piperazinylimino rifamycins” (Gruppo Lepetit S.p.A., priority 1975, dated 1977).
In brackets after ≈: the same amount, converted by molar mass.

Legend:
in vivo = details: mouse
Staphylococcus aureus = test: experimental Staphylococcus aureus infections in mice; format: in vivo; details: po; Staphylococcus aureus infection in mice
[1] = tested on: Mycobacterium tuberculosis H37 Rv; test: survival time of mice infected with Mycobacterium tuberculosis H37 Rv; format: in vivo; details: once a week administration per os versus daily administration of rifampicin at the same dose level
From the text: The unexpected biological characteristics of the novel rifamycins have been evidenced by considering the survival time after a daily administration of rifampicin in comparison with a once a week administration of the same dose level per os of 3-(4-cyclopentyl-1-piperazinyl)iminomethylrifamycin SV (hereinafter referred to as "cyclopentyl derivative") to mice infected with Mycobacterium tuberculosis H37 Rv.

[2] = tested on: Mycobacterium tuberculosis H37 Rv; test: minimal inhibitory concentration in vitro against Mycobacterium tuberculosis H37 Rv; format: cell-based; details: H37RV
Procedure: For instance, the value of the minimal inhibitory concentration in vitro of the "cyclopentyl derivative" against Mycobacterium tuberculosis H37 Rv is 0.05 μg/ml, while that of rifampicin is 0.5 μg/ml.

toxicity in mice (LD50) = details: mouse, in vivo

SMILES	LD50 (in vivo; ip) [mg/kg]	LD50 (in vivo; po) [mg/kg]	ED50 (Staphylococcus aureus) [mg/kg]	survival time [1]	MIC [2] [mg/L]	LD50 (toxicity in mice (LD50); ip) [mg/kg]	LD50 (toxicity in mice (LD50); po) [mg/kg]
COC1C=COC2(C)Oc3c(C)c(O)c4c(O)c(c(C=NN5CCN(C6CCC6)CC5)c(O)c4c3C2=O)NC(=O)C(C)=CC=CC(C)C(O)C(C)C(O)C(C)C(OC(C)=O)C1C (stereo not drawn) [cyclobutyl derivative, 3-(4-cyclobutyl-1-piperazinyl)iminomethylrifamycin SV]	> 650	> 2000	0.16	–	–	–	–
COC1C=COC2(C)Oc3c(C)c(O)c4c(O)c(c(C=NN5CCN(C6CCCC6)CC5)c(O)c4c3C2=O)NC(=O)C(C)=CC=CC(C)C(O)C(C)C(O)C(C)C(OC(C)=O)C1C (stereo not drawn) [cyclopentyl derivative, 3-(4-cyclopentyl-1-piperazinyl)iminomethylrifamycin SV]	> 750	> 2000	–	about the same survival time	0.05 (≈ 0.057 µM)	–	–
CO[C@H]1/C=C/O[C@@]2(C)Oc3c(C)c(O)c4c(O)c(c(/C=N/N5CCN(C)CC5)c(O)c4c3C2=O)NC(=O)/C(C)=C\C=C\[C@H](C)[C@H](O)[C@@H](C)[C@@H](O)[C@@H](C)[C@H](OC(C)=O)[C@@H]1C [rifampicin]	–	–	–	–	–	416	907
